Assay results published in ChEMBL document CHEMBL1126212, “A peptide-acridine conjugate with ribonucleolytic activity” (1992).
Peptide text beside a SMILES is read from it. * marks the point of attachment. Acridine9carbonyl = O=C(c1c2ccccc2nc2ccccc12)*

Tested on: Escherichia coli
Experiment: Evaluated for the ribosomal RNA cleavage using Gel-permeation analysis as difference in retention time
Type: functional

Row | Structure (SMILES) | Difference in retention time
1 | NCCCC[C@H](NC(=O)[C@H](Cc1c[nH]cn1)NC(=O)[C@@H]1CCCN1C(=O)[C@@H](N)Cc1c[nH]cn1)C(N)=O (H-HPHK-NH2) | 0.2 min
2 | Cc1ccc2nc3ccccc3c(C=O)c2c1 | 0.3 min
3 | N[C@@H](Cc1c[nH]cn1)C(=O)N1CCC[C@H]1C(=O)N[C@@H](Cc1c[nH]cn1)C(=O)N[C@@H](CCCCNC(=O)c1c2ccccc2nc2ccccc12)C(=O)O (H-HPHK(Acridine9carbonyl)-OH) | 3.4 min
